Data on 5 compounds can be found in PMC7138916 (Pharmacology Research & Perspectives, 2020).

The nature of series [1]: Rat pharmacokinetic study, IV single bolus. The note with it: male, Sprague-Dawley, in vivo, iv.
The subject of series [2] is efflux transporters (eg, P‐gp, BCRP, MRPs). The series is described as follows: Classification as efflux transporter substrate. Particulars: for Efflux transporter substrate: Yes/No; for Class (based on membrane permeability and ER value): parental MDCK, MDR1‐MDCK, and Caco‐2 cell lines.
Series [3] relates to P‐glycoprotein. Particulars: digoxin efflux, human colon, cited from earlier work.
The nature of series [4]: Bidirectional permeability in parental MDCK cells. Type of series: in vitro ADME, Canine. Particulars: dog, MDCK.
The nature of series [5]: Bidirectional permeability and efflux ratio in Caco‐2 cells. The note with it: human; for Papp A→B at 2 h, 5 μmol/L / Papp B→A at 2 h, 5 μmol/L: Caco-2. The class given is in vitro ADME, human. Background: Passage across Caco-2 layers is used to estimate intestinal permeability.
In series [6] the test system is P‐glycoprotein. The note with it: digoxin efflux, rat colon; cited from earlier work.
The nature of series [7]: Rat brain and blood microdialysis at steady state. Particulars: male, Sprague-Dawley, rat, in vivo, iv, C m,brain, steady‐state unbound concentration in brain (right striatum), microdialysis, IV infusion, mean ± SD.
In the next series the target is human P-gp (MDR1) (Homo sapiens, UniProt P08183). Put plainly: Bidirectional permeability and efflux ratio in MDR1‐MDCK cells. Type of series: in vitro ADME. The note with it: human; for Papp A→B at 2 h, 1 μmol/L / Papp B→A at 2 h, 1 μmol/L: MDCK-MDR1.
Chain of human P-gp (MDR1) (P08183 whole entry): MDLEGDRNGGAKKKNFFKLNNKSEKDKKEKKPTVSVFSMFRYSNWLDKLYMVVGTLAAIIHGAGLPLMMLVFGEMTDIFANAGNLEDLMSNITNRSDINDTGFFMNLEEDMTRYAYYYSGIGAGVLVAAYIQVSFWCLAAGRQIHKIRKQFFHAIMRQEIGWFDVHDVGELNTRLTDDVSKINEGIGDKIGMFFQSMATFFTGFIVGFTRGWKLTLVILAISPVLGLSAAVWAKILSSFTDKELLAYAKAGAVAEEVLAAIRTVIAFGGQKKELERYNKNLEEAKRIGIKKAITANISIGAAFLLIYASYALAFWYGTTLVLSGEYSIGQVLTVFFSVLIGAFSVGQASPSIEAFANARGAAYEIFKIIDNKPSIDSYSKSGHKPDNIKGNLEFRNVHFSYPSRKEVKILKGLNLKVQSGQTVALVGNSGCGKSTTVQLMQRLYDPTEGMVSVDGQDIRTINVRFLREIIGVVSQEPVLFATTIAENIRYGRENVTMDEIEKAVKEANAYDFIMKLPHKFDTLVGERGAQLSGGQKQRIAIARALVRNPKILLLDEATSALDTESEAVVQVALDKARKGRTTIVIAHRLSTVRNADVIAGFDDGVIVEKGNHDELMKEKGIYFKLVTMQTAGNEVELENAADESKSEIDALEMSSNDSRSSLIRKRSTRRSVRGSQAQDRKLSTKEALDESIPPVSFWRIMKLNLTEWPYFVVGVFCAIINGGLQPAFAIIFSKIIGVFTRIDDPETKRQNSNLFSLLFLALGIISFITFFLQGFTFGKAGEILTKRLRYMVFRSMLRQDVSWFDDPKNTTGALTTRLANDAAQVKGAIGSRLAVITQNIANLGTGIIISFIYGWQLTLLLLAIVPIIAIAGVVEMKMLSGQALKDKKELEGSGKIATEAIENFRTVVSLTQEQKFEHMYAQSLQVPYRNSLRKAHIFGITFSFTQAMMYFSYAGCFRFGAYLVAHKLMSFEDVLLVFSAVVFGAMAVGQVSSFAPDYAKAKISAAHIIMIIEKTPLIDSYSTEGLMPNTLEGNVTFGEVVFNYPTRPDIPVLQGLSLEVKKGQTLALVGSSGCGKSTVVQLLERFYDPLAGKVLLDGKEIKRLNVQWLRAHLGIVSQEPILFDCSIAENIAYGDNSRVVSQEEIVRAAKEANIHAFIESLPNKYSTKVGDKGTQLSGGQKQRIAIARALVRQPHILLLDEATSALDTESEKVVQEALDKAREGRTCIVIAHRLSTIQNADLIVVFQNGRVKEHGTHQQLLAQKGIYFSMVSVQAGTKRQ
For series [8] the following is noted: cited from earlier work.
Another series relates to MDCK cell line. Put plainly: Bidirectional permeability in parental MDCK cells. Particulars: MDCK cell line, 1 μmol/L, 2 hours, 10 uM Cyclosporin A, n = 4. Type of series: in vitro ADME, Canine.
In the next series the test system is Caco‐2 cell line. Put plainly: Bidirectional permeability and efflux ratio in Caco‐2 cells. Type of series: in vitro ADME, human. The note with it: Caco‐2 cell line, P app(B–A)/P app(A–B).
The test system of a further series is MDCK‐MDR1‐NKI cell lines. The note with it: cited from earlier work.
For series [9] the following is noted: rat; ref 20 (Summerfield et al); cited from earlier work.
A further series concerns P‐gp. The note with it: cited from earlier work.

Read-outs that look alike come from different tables or passages of the source.

In general, Vd refers to a proportionality between amount in the body and measured concentration, not a real space. Read a high Vd as wide distribution into tissue. In general, clearance refers to the rate of elimination divided by the concentration. High values mean a high capacity for elimination, low ones a low capacity for elimination. By half-life is commonly meant the time in which the quantity being followed falls by half. Low values mean rapid decline, high ones slow decline. A word on the Papp A→B: it is how fast a substance crosses the layer from the apical side. As usually defined, the Papp B→A is how fast a substance crosses the layer from the basolateral side. As usually defined, the Papp is the rate of passage across a membrane or cell layer, normalised by area and donor concentration. In series [1], `C[C@H]1O[C@@H](O[C@H]2[C@@H](O)C[C@H](O[C@H]3[C@@H](O)C[C@H](O[C@H]4CC[C@@]5(C)[C@H](CC[C@@H]6[C@@H]5C[C@@H](O)[C@]5(C)[C@@H](C7=CC(=O)OC7)CC[C@]65O)C4)O[C@@H]3C)O[C@@H]2C)C[C@H](O)[C@@H]1O` [Digoxin, digoxin] had a Vd of 0.376 ± 0.013 L/kg, a clearance of 0.546 ± 0.078 L/h/kg and a half-life of 78 ± 15.6 min. Also, in [2], the Efflux transporter substrate result is recorded as “Yes”; the “Class (based on membrane permeability and ER value)” value (from here on “Class”) is recorded as “Class II”. Further, the “J max (maximal net flux)” value in the series with P‐glycoprotein [3] was 3.1 ± 0.8 nmol/h/cm^2. Moreover, the EC50 in the series on P‐glycoprotein [3] (read-out: EC50 (the concentration at which half‐maximal flux was achieved)) is 58.7 ± 15.5 µM. In addition, in series [4], the Papp A→B at 2 h, 1 μmol/L was 22.2 ± 3.4 nm/s; the Papp B→A at 2 h, 1 μmol/L came to 27.3 ± 4.5 nm/s; the Papp at 2 h, 1 μmol/L turned out to be 24.8 ± 4.6 nm/s. Further, in series [5], the Papp A→B at 2 h, 5 μmol/L was 4.77 ± 0.88 nm/s and the Papp B→A at 2 h, 5 μmol/L was determined as 230 ± 16 nm/s. Besides, the “J max (maximal net flux)” value in the series on P‐glycoprotein [6] is 2.2 ± 0.3 nmol/h/cm^2.

In series [7], `CC(C)NCC(O)COc1cccc2ccccc12` (stereo not shown) [Propranolol, propranolol] returned a concentration at 6 h of 1.49 ± 0.24 µM. In series [1], this compound showed a Vd of 4.64 ± 0.7 L/kg, a clearance of 4.97 ± 0.75 L/h/kg and a half-life of 56.6 ± 3.72 min. In series [2], the Efflux transporter substrate result is “No”; the “Class” value is listed as “Class I”. For the same compound, at human P-gp (MDR1), the Papp A→B at 2 h, 1 μmol/L was 189 ± 26 nm/s and the Papp B→A at 2 h, 1 μmol/L was determined as 168 ± 5 nm/s. In series [8], the “reported mean values of rat plasma CL” value was 4.08 L/h/kg. In series [4], the Papp A→B at 2 h, 1 μmol/L was 137 ± 53 nm/s; the basolateral-to-apical permeability (Papp B→A) at 2 h, 1 μmol/L amounted to 83.7 ± 38 nm/s; the Papp at 2 h, 1 μmol/L was determined as 110 ± 52 nm/s. The “Average P app” value in the series with MDCK cell line is “about 11.0 10^−6 cm/s”. In series [5], the Papp A→B at 2 h, 5 μmol/L was 212 ± 36 nm/s and the Papp B→A at 2 h, 5 μmol/L amounted to 138 ± 5 nm/s. Also, in the series on Caco‐2 cell line, the Efflux ratio turned out to be 0.654. For the same compound, in the series with Caco‐2 cell line (listed as propranolol), the Efflux ratio result is “less than 2.0”.

In series [7], `C=C[C@H]1C[N@@]2CC[C@H]1C[C@@H]2[C@@H](O)c1ccnc2ccc(OC)cc12` [Quinidine, quinidine] yielded a concentration at 6 h of 0.552 ± 0.126 µM. For the same compound, in the series on MDCK‐MDR1‐NKI cell lines, the permeability result is “about 60 × 10^−6 cm/sec”.

A word on the efflux ratio: it is the permeability from basolateral to apical divided by that in the opposite direction, in the common usage. In turn, `CNS(=O)(=O)Cc1ccc2[nH]cc(CCN(C)C)c2c1` [Sumatriptan, sumatriptan] showed a concentration at 6 h in series [7] of 0.845 ± 0.439 µM. In series [1], this compound gave a Vd of 3.11 ± 0.03 L/kg, a clearance of 3.55 ± 0.348 L/h/kg and a half-life of 58.8 ± 0.66 min. Besides, in series [2], the Efflux transporter substrate result is on record as “Yes”; the “Class” value is “Class II”. On human P-gp (MDR1), the Papp A→B at 2 h, 1 μmol/L worked out at 6.83 ± 0.4 nm/s and the Papp B→A at 2 h, 1 μmol/L turned out to be 15.4 ± 5.9 nm/s. The efflux ratio at 2 h, 1 μmol/L on human P-gp (MDR1) (MDCK-MDR1, Efflux ratio, MDR1‐MDCK cell line, P app(B–A)/P app(A–B)) was determined as 2.25. For the same compound, the “steady‐state unbound concentration in brain lower than in plasma” value in series [9] is given as “about 20 fold”. In [4], the apical-to-basolateral permeability (Papp A→B) at 2 h, 1 μmol/L amounted to 10.7 ± 0.8 nm/s; the Papp B→A at 2 h, 1 μmol/L came to 22.1 ± 3.7 nm/s; the Papp at 2 h, 1 μmol/L came to 16.4 ± 6.6 nm/s. Also, in [5], the Papp A→B at 2 h, 5 μmol/L stood at 9.04 ± 2.83 nm/s and the Papp B→A at 2 h, 5 μmol/L stood at 19.1 ± 6 nm/s. Further, in series [5] (Caco-2, Efflux ratio, Caco‐2 cell line, P app(B–A)/P app(A–B)), the efflux ratio at 2 h, 5 μmol/L came out at 2.12.

In the case of `Cc1c(O)cccc1C(=O)N[C@@H](CSc1ccccc1)[C@H](O)CN1C[C@H]2CCCC[C@H]2C[C@H]1C(=O)NC(C)(C)C` [neflinivir], the permeability in the series with P‐gp is 1970 nm/s.
